Assay results taken from article PMC7763892, “Anti-Inflammatory Effect of Homo- and Heterodimers of Natural Enkephalinase Inhibitors in Experimental Colitis in Mice” (Molecules, 2020).
Where a SMILES comes first, the peptide text is derived from it.

Assays:
[1] = Stability in human plasma; assay type: in vitro ADME; conditions: RP-HPLC
Description: Plasma-stability assays were performed, as described previously. The sample preparation and the analysis of peptide I were both performed in the same way as in our previous work. Peptides III and X were analyzed by RP-HPLC using a linear gradient of 20–80% B over 20 min with the same solvent system of 0.1% TFA in water (A) and 0.1% TFA in acetonitrile (B), with a flow rate of 1.5 mL/min. All measurements were performed in triplicate.

[2] = Solubility in Tris-HCl buffer; assay type: physicochemical; conditions: Tris-HCl buffer + 3% DMSO
Description: The designed dimers (peptides IX–XI) were sparingly soluble in Tris-HCl buffer. To improve their solubility in Tris-HCl buffer, 3% DMSO was added to the samples. […] In the time of analysis of spinorphin (III) and peptide IV, products with the same retention time as the analyzed substrate, were created, which made determining the inhibitory activity of the investigated peptides against NEP impossible.

[3] = target: neutral endopeptidase (NEP) (Homo sapiens, UniProt P08473); conditions: Tris-HCl buffer 50 mM, pH 7.4, 37 °C, RP-HPLC, mean ± SEM, ref Sobocińska et al. [24], cited from earlier work
[4] = cited from earlier work
TNBS-induced colitis = conditions: mouse model; cited from earlier work
[5] = cited from earlier work; remark: listed apart in the source
Description: In stability assays in human plasma, peptide X was included because this compound was selected for in vivo assays of the anti-inflammatory activity. […] After 2 h of incubation, the levels of peptide X were, respectively, 10.3 and ...

neutral endopeptidase (NEP), sequence (P08473 whole entry, species assumed): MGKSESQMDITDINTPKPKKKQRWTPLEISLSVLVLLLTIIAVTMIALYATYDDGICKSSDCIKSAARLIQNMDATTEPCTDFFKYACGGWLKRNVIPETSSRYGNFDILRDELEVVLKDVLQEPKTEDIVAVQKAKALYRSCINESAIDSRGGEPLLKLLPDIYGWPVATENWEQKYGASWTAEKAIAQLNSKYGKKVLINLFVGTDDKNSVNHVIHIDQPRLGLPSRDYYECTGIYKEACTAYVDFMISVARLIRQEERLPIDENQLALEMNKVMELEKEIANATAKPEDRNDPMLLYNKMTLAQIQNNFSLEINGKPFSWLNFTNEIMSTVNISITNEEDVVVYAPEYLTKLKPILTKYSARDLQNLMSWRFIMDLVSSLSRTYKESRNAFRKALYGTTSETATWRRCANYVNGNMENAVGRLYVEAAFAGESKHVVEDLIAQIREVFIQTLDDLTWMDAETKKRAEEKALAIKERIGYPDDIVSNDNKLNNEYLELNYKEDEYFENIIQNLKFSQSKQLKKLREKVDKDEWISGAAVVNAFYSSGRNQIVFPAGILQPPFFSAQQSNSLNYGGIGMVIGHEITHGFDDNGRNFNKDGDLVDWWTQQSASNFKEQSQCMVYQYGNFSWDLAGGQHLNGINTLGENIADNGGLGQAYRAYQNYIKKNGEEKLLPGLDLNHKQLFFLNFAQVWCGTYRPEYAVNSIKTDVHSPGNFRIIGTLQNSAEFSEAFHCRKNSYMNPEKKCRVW

## CC(C)C[C@H](N)C(=O)N[C@H](C(=O)N[C@H](C(=O)N[C@@H](Cc1ccc(O)cc1)C(=O)N1CCC[C@H]1C(=O)N[C@@H](Cc1c[nH]c2ccccc12)C(=O)N[C@H](C(=O)O)[C@@H](C)O)C(C)C)C(C)C [III, Spinorphin (Leu-Val-Val-Tyr-Pro-Trp-Thr)] (H-LVVYPWT-OH)
[1]; 4 h incubation, triplicate
  % of remaining peptide in human plasma after 4 h: completely decomposed

## CC(C)C[C@H](NC(=O)[C@@H](N)CSSC[C@H](N)C(=O)N[C@@H](CC(C)C)C(=O)N[C@H](C(=O)N[C@H](C(=O)N[C@@H](Cc1ccc(O)cc1)C(=O)N1CCC[C@H]1C(=O)N[C@@H](Cc1c[nH]c2ccccc12)C(=O)N[C@H](C(=O)O)[C@@H](C)O)C(C)C)C(C)C)C(=O)N[C@H](C(=O)N[C@H](C(=O)N[C@@H](Cc1ccc(O)cc1)C(=O)N1CCC[C@H]1C(=O)N[C@@H](Cc1c[nH]c2ccccc12)C(=O)N[C@H](C(=O)O)[C@@H](C)O)C(C)C)C(C)C [IX, (Cys-Leu-Val-Val-Tyr-Pro-Trp-Thr)2] (HELM PEPTIDE1{C.L.V.V.Y.P.W.T}|PEPTIDE2{C.L.V.V.Y.P.W.T}$PEPTIDE1,PEPTIDE2,1:R3-1:R3$$$V2.0)
[2]
  solubility in Tris-HCl buffer with 3% DMSO: did not help to dissolve

## CC(C)C[C@H](NC(=O)[C@@H](N)CSSC[C@H](N)C(=O)N[C@@H](CCC(N)=O)C(=O)N[C@@H](Cc1c[nH]cn1)C(=O)N[C@@H](CC(N)=O)C(=O)N1CCC[C@H]1C(=O)N[C@@H](CCCNC(=N)N)C(=O)O)C(=O)N[C@H](C(=O)N[C@H](C(=O)N[C@@H](Cc1ccc(O)cc1)C(=O)N1CCC[C@H]1C(=O)N[C@@H](Cc1c[nH]c2ccccc12)C(=O)N[C@H](C(=O)O)[C@@H](C)O)C(C)C)C(C)C [Peptide X, Cys-Gln-His-Asn-Pro-Arg │ Cys-Leu-Val-Val-Tyr-Pro-Trp-Thr] (HELM PEPTIDE1{C.L.V.V.Y.P.W.T}|PEPTIDE2{C.Q.H.N.P.R}$PEPTIDE1,PEPTIDE2,1:R3-1:R3$$$V2.0)
[1]; 2 h incubation, times higher
  level of peptide in human plasma after 2 h relative to spinorphin: 4 times
[1]; 4 h incubation, triplicate, read-out: % of remaining peptide in human plasma after 4 h
  remaining at 4 h: 42%
[1]; 24 h incubation, triplicate, read-out: % of remaining peptide in human plasma after 24 h
  remaining at 24 h: 8%

## Gln-His-Asn-Pro-Arg [Peptide I, Sialorphin (Gln-His-Asn-Pro-Arg)]
[3]; without inhibitor 25.35 ± 1.05
  1000 × k, degradation rate of Met-enkephalin incubated with NEP and peptide: 8.84 ± 0.27 ** 1/min
[3]; without inhibitor 27 ± 1
  t1/2, half-life of Met-enkephalin incubated with NEP and peptide: 78 ± 2 min

## Opiorphin (Gln-Arg-Phe-Ser-Arg) [II]
[4]
  amount that disappears in human plasma because of potential complex formation: 12%
  metabolic half-life in human plasma: 5 min
[4]; maximum
  disappearance in human plasma by cyclization of Gln1 to Glp: ≤ 16%
TNBS-induced colitis
  anti-inflammatory effect in TNBS-induced colitis: lack of a anti-inflammatory effect

## Pal-KKQRFSR
TNBS-induced colitis
  anti-inflammatory effect in TNBS-induced colitis: lack of a anti-inflammatory effect

## Sialorphin (Gln-His-Asn-Pro-Arg) [Peptide I]
[5]; 4 h incubation, RP-HPLC, ref Sobocinska et al. [21]
  remaining peptide in human plasma after 4 h: completely decomposed
[5]
  stability in human plasma: sensitive to degradation
TNBS-induced colitis
  anti-inflammatory effect in TNBS-induced colitis: potent anti-inflammatory activity
